The results in this text go back to PubChem BioAssay (NCI).

Some test systems named below: A549 NSCLC; DU-145 prostate; EKVX NSCLC; HS 578T breast; NCI/ADR-RES ovarian; RPMI-8226 leukemia; RXF 393 renal; T-47D breast; UACC-257 melanoma; LOX IMVI melanoma.
What all share (assay): growth of human tumour cells (NCI), 48 h

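Cultured in 96-well plates, cells were exposed to test compound for 48 hours across five concentrations. Here, GI50 denotes the concentration required for 50% inhibition of growth. TGI marks complete inhibition of growth.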 A value given as a limit tells only on which side of the number the result lay.

Regarding `CCN(CC)c1cc2oc3cc(N)cc(=N)c-3nc2cc1C`, the GI50 in the experiment on A549 NSCLC is 3.63 µM; in the experiment with DU-145 prostate, 2.2 µM; in the experiment on EKVX NSCLC it was 4.02 µM; in the experiment on HS 578T breast it was 2.18 µM; with NCI/ADR-RES ovarian, 2.29 µM; with RPMI-8226 leukemia it was 1.03 µM. The GI50 is 13.1 µM in the experiment with RXF 393 renal, 5.04 µM in the experiment with T-47D breast and 3.11 µM in the experiment on UACC-257 melanoma. In addition, the TGI with A549 NSCLC is 18.3 µM; in the experiment on DU-145 prostate, 4.92 µM; with EKVX NSCLC it was 54.6 µM; in the experiment with HS 578T breast, 7.25 µM; in the experiment with NCI/ADR-RES ovarian it was greater than 100 µM; with RPMI-8226 leukemia it was 23.7 µM. Moreover, the TGI with RXF 393 renal was 26.9 µM; in the experiment with T-47D breast, 43.8 µM; with UACC-257 melanoma, 34 µM.
As to `O=C1C(Cl)=C(Nc2ccccc2O)C(=O)N1Cc1ccccc1`, the GI50 with A549 NSCLC is 20.3 µM; in the experiment with DU-145 prostate, 18.2 µM; in the experiment on HS 578T breast it was 17.3 µM; in the experiment on LOX IMVI melanoma, 16.5 µM; in the experiment with NCI/ADR-RES ovarian it was 24.6 µM; in the experiment with RPMI-8226 leukemia, 12.5 µM. Moreover, the GI50 in the experiment with RXF 393 renal was 12.5 µM; with T-47D breast, 23.3 µM. Besides, the TGI in the experiment with A549 NSCLC stood at 46 µM; in the experiment with DU-145 prostate, 32.1 µM; in the experiment with HS 578T breast, 38.1 µM; in the experiment with LOX IMVI melanoma, 30.1 µM; with NCI/ADR-RES ovarian, 57.1 µM; in the experiment on RPMI-8226 leukemia, 27.2 µM. For the same compound, the TGI in the experiment with RXF 393 renal was 30.7 µM; in the experiment with T-47D breast, 52.7 µM.
For `N#Cc1ccc(OC(=O)Nc2ccc(Cl)c(Cl)c2)cc1`, the GI50 is 3.43 µM in the experiment on A549 NSCLC; 4.13 µM with DU-145 prostate; 5.02 µM with HS 578T breast; 3.79 µM in the experiment on NCI/ADR-RES ovarian; 2.43 µM in the experiment with RPMI-8226 leukemia; 7.3 µM with RXF 393 renal. Besides, the GI50 in the experiment on T-47D breast was 3.15 µM; in the experiment with UACC-257 melanoma, 4.07 µM. The TGI with A549 NSCLC is greater than 100 µM; in the experiment with DU-145 prostate, greater than 100 µM; with HS 578T breast it was 28.9 µM; in the experiment with NCI/ADR-RES ovarian, greater than 100 µM; in the experiment with RPMI-8226 leukemia, 6.77 µM; in the experiment on RXF 393 renal, 42.2 µM. For the same compound, the TGI in the experiment on T-47D breast came out at 12.8 µM; in the experiment with UACC-257 melanoma, 23.9 µM.
Turning to `Nc1nc(N)c2cc(CNc3ccc(C(=O)NC(CC(=O)O)C(=O)O)c(Cl)c3)ccc2n1` (stereo unspecified), the GI50 is 0.05 µM in the experiment on A549 NSCLC; greater than 500 µM in the experiment with EKVX NSCLC; 0.05 µM in the experiment on LOX IMVI melanoma; 0.05 µM with NCI/ADR-RES ovarian; 2.77 µM with RPMI-8226 leukemia; greater than 500 µM in the experiment on RXF 393 renal. Further, the TGI in the experiment on A549 NSCLC, with DU-145 prostate, with EKVX NSCLC, with HS 578T breast, in the experiment on LOX IMVI melanoma and in the experiment on NCI/ADR-RES ovarian was greater than 500 µM throughout. The TGI in the experiment with RPMI-8226 leukemia, in the experiment with RXF 393 renal and with T-47D breast was greater than 500 µM in each case.
As to `CC[C@@]1(O)C(=O)OCc2c1cc1n(c2=O)Cc2c-1nc1cc(F)c(C)c3c1c2[C@@H](N)CC3`, the GI50 in the experiment on A549 NSCLC is less than 0.01 µM; in the experiment with DU-145 prostate it was less than 0.01 µM; in the experiment with EKVX NSCLC, 0.0377 µM; in the experiment with HS 578T breast, 0.735 µM; in the experiment with NCI/ADR-RES ovarian, less than 0.01 µM; in the experiment with RPMI-8226 leukemia, 0.0109 µM. In addition, the GI50 with RXF 393 renal is less than 0.01 µM; with T-47D breast, less than 0.01 µM; in the experiment with UACC-257 melanoma it was less than 0.0151 µM. Also, the TGI in the experiment on A549 NSCLC was 1.15 µM; in the experiment on DU-145 prostate, greater than 100 µM; with EKVX NSCLC, greater than 100 µM; in the experiment on HS 578T breast it was greater than 100 µM; in the experiment with NCI/ADR-RES ovarian it was greater than 100 µM; with RPMI-8226 leukemia, 1.58 µM. Besides, the results for the TGI in the experiment with RXF 393 renal, in the experiment with T-47D breast and in the experiment on UACC-257 melanoma were 0.0254 µM, greater than 100 µM and 0.981 µM, respectively.
Regarding `CO/N=C(/C)c1cccc(Nc2cc(-c3ccccc3)nc3ccc(OC)cc23)c1`, the GI50 is 23.1 µM in the experiment with A549 NSCLC; 12 µM in the experiment with DU-145 prostate; 10.8 µM with EKVX NSCLC; 27.6 µM with HS 578T breast; 4.7 µM in the experiment on NCI/ADR-RES ovarian; 3.12 µM with RPMI-8226 leukemia. Besides, the GI50 is 71 µM in the experiment with T-47D breast and 18.4 µM with UACC-257 melanoma. Further, the TGI in the experiment with A549 NSCLC amounted to 53.9 µM; with DU-145 prostate, 31.5 µM; in the experiment with EKVX NSCLC, 30.3 µM; with HS 578T breast, 64.3 µM; with NCI/ADR-RES ovarian, 24 µM; in the experiment on RPMI-8226 leukemia it was 8.28 µM. For the same compound, the results for the TGI in the experiment on T-47D breast and in the experiment on UACC-257 melanoma were greater than 100 µM and 43.2 µM, respectively.
As to `CCC(=O)Nc1ccc(N=NN(C)C)cc1`, the TGI in the experiment on A549 NSCLC, with DU-145 prostate, in the experiment on EKVX NSCLC, with HS 578T breast, in the experiment on LOX IMVI melanoma and in the experiment on NCI/ADR-RES ovarian was greater than 100 µM in each case. Also, the TGI was greater than 100 µM in the experiment on RXF 393 renal, 30.4 µM in the experiment on T-47D breast and greater than 100 µM in the experiment on UACC-257 melanoma.
On to `O=C(N/N=C/c1c(Cl)cccc1Cl)c1ccc(C(F)(F)F)nc1Nc1cccc(C(F)(F)F)c1`, for which the GI50 in the experiment on A549 NSCLC was 1.54 µM; with DU-145 prostate, 1.79 µM; in the experiment on EKVX NSCLC, 0.886 µM; with HS 578T breast it was 1.75 µM; in the experiment on LOX IMVI melanoma it was 0.677 µM; in the experiment on NCI/ADR-RES ovarian it was 0.616 µM. The GI50 in the experiment on RPMI-8226 leukemia is 0.375 µM; with T-47D breast, 0.971 µM; in the experiment on UACC-257 melanoma, 1.02 µM. In addition, the TGI in the experiment on A549 NSCLC is greater than 36.1 µM; with DU-145 prostate, greater than 32.8 µM; with EKVX NSCLC, greater than 27.9 µM; in the experiment on HS 578T breast it was 18 µM; in the experiment with LOX IMVI melanoma it was 11.5 µM; in the experiment on RPMI-8226 leukemia, 10.5 µM. The values for the TGI in the experiment on T-47D breast and in the experiment on UACC-257 melanoma were 11.8 µM and greater than 100 µM, respectively.
On to `C[C@]12CC[C@@H]3c4ccc(O)c([N+](=O)[O-])c4CC[C@H]3[C@@H]1CC[C@@H]2NS(=O)(=O)c1cccc(Br)c1`, for which the GI50 was 2.81 µM in the experiment on A549 NSCLC; 3.6 µM in the experiment on DU-145 prostate; 2.23 µM in the experiment on HS 578T breast; 2.69 µM with NCI/ADR-RES ovarian; 2.44 µM in the experiment on RPMI-8226 leukemia; 2.03 µM with RXF 393 renal. The GI50 was 1.8 µM in the experiment on T-47D breast and 2.1 µM in the experiment with UACC-257 melanoma. Also, the TGI in the experiment with A549 NSCLC came out at 8.89 µM; in the experiment on DU-145 prostate, 12.4 µM; in the experiment on HS 578T breast, 6 µM; in the experiment on NCI/ADR-RES ovarian it was 8.55 µM; with RPMI-8226 leukemia it was 6.27 µM; in the experiment on RXF 393 renal it was 4.21 µM. Besides, the figures for the TGI with T-47D breast and in the experiment with UACC-257 melanoma were 3.96 µM and 5.04 µM, respectively.
